Results taken from patent US4202967A, “N,N-pentamethylene derivatives of daunomycin and adriamycin” (SRI International, priority 1978, dated 1980).
pIC50: −log10 of the molar value. Structures can show the parent of a compound that is named as a salt. Where two headings read alike, the source gives them in different places.

Columns and labels:
[1] = system: DNA synthesis in L1210 cells; test: Inhibition of DNA synthesis (incorporation of tritiated 3H-thymidine) in cultured L1210 cells; format: cell-based; details: Mus musculus
Method: (§1) Also presented in the table are the results of in vitro tests using cultured L1210 cells in which the activity of each chemical enumerated in the following table is presented in relation to its potency as an inhibitor of nucleic acid synthesis. Data for daunomycin and adriamycin are also included in the table for the sake of comparison. More specifically, the inhibition of the synthesis of DNA and RNA by each compound was measured as a function of its activity in inhibiting incorporation of tritiated ^3 H-thymidine or ^3 H-uridine into DNA and RNA, respectively. ED50 represents the concentration, in micromolar units, which inhibits incorporation of 50% of tritiated ^3 H-thymidine or ^3 H-uridine into the DNA and RNA of the test cells.
(§2) ^a ΔTm and Ed50 values were determined by the method of G.
(§3) Tong, W. W. Lee, D. R. Black, and D. W. Henry, J. Med. Chem., 19, 395
(§4) (1976), except that the drugs were initially dissolved in a volume of DMS
(§5) the assay medium. This modification greatly aided solubilization and did
(§6) not affect assay results, according to extensive control experiments.

[2] = system: RNA synthesis in L1210 cells; test: Inhibition of RNA synthesis (incorporation of tritiated 3H-uridine) in cultured L1210 cells; format: cell-based; details: for Nucleic Acid Syn Inhibn, ED50 ratio DNA/RNA: ED50 DNA divided by ED50 RNA; for pIC50: Mus musculus
Method: as §1, §2, §3, §4, §5, §6

ΔTm = format: binding; details: drugs initially dissolved in DMSO; final DMSO 5%
Method: as §2, §3, §4, §5, §6

[3] = system: P388 lymphocytic leukemia; test: Antitumor activity in mice (P388, qd 5,9,13); format: in vivo; details: ip; for T/C (P388, qd 5,9,13): at optimal dose, days 5, 9, 13, ratio of average survival times treated/untreated, active if T/C ≥ 120; for Opt. Dose (P388, qd 5,9,13): days 5, 9, 13
Method: (§7) As indicated above, the compounds of the present invention have improved antitumor activity. This is evidenced by the data given below. In one operation, conducted in accordance with Protocol 1200 set forth in Cancer Chemotherapy Reports, National Cancer Institute, Vol. 3, No. 2, Part 3, September 1972, healthy mice were inoculated i.p. with Limphocytic Leukemia P-388 ascitic fluid. The inoculated mice were then treated i.p. for the succeeding 9 day period with varying amounts of the test chemicals of Example 2 while others of the mice were similarly inoculated with adrimycin hydrochloride and with daunomycin hydrochloride, the dosage pattern being set forth in the table given below. The average survival times of the treated mice was then determined, as was that of the control mice, which were inoculated with the ascitic fluid but given no treatment with the test chemicals. Presented in the following table under the T/C column headings are data obtained by dividing the survival time of the treated mice with that of the control mice, the quotient so obtained being multiplied by 100.
(§8) ^b Assays arranged through Drug Research and Development Program,
(§9) Division of Cancer Treatment, National Cancer Institute. BDF or CDF mice
(§10) are injected ip with […] P388 lymphocytic leukemia cells on Day 0
(§11) and are treated ip on Days 1-9 or days 5, 9, 13 with the specified drug
(§12) dose. For detailed protocols see R. I. Geran, N. H. Greenberg, M. M.
(§13) MacDonald, A. M. Schumacher, and B. J. Abbott, Cancer Chemother. Rep.,
(§14) ^c Ratio of average survival times of treated mice to untreated
(§15) controls in percent. The average survival time of untreated controls is
(§16) approximately 11 days. Activity is defined as values of T/C ≥ 120
(§17) in the qd 5, 9, 13 protocol and T/C ≥ 125 in the qd 1-9 protocol.

[4] = system: P388 lymphocytic leukemia; test: Antitumor activity in mice (P388, qd 1-9); format: in vivo; details: ip; for T/C (P388, qd 1-9): at optimal dose, days 1-9, ratio of average survival times treated/untreated, active if T/C ≥ 125; for Opt. Dose (P388, qd 1-9): days 1-9
Method: as §7, §8, §9, §10, §11, §12, §13, §14, §15, §16, §17

[5] = L1210, read-out: Nucleic Acid Syn Inhibn, ED50 DNA
[6] = L1210, read-out: Nucleic Acid Syn Inhibn, ED50 RNA

SMILES	pIC50 [1, 5]	Nucleic Acid Syn Inhibn, ED50 ratio DNA/RNA ([2]; L1210 cells)	pIC50 [2, 6]	ΔTm (ΔTm) [°C]	T/C (P388, qd 5,9,13) [3] [%]	Opt. Dose (P388, qd 5,9,13) [3] [mg/kg]	T/C (P388, qd 1-9) [4] [%]	Opt. Dose (P388, qd 1-9) [4] [mg/kg]	pIC50 ([1]; L1210 cells, 3H-thymidine incorporation, 50% inhibition, final DMSO 1%, read-out: Nucleic Acid Syn Inhibn, ED50 DNA)	pIC50 ([2]; L1210 cells, 3H-uridine incorporation, 50% inhibition, final DMSO 1%, read-out: Nucleic Acid Syn Inhibn, ED50 RNA)
COc1cccc2c1C(=O)c1c(O)c3c(c(O)c1C2=O)C[C@@](O)(C(=O)CO)C[C@@H]3O[C@H]1C[C@H](N)[C@H](O)[C@H](C)O1 [Adriamycin hydrochloride]	5.82	2.6	6.24	13.4	159	8	197	0.78	–	–
COc1cccc2c1C(=O)c1c(O)c3c(c(O)c1C2=O)C[C@@](O)(C(C)=O)C[C@@H]3O[C@H]1C[C@H](N)[C@H](O)[C@H](C)O1 [Daunomycin hydrochloride]	6.18	–	6.48	–	132	8	160	0.78	–	–
COc1cccc2c1C(=O)c1c(O)c3c(c(O)c1C2=O)C[C@@](O)(C(O)CO)C[C@@H]3O[C@H]1C[C@H](N2CCCCC2)[C@H](O)[C@H](C)O1 (stereo partly drawn) [N,N-Pentamethylene-13-dihydroadriamycin]	6.14	7.2	7.00	12.5	143	18	157	1.56	–	–
COc1cccc2c1C(=O)c1c(O)c3c(c(O)c1C2=O)C[C@@](O)(C(=O)CO)C[C@@H]3O[C@H]1C[C@H](N2CCCCC2)[C@H](O)[C@H](C)O1 [N,N-Pentamethyleneadriamycin]	–	17.5	–	15.4	155	9.4	190	3.13	6.15	7.40
